Results from ChEMBL document CHEMBL5244229, “Thiazole-containing compounds as therapeutic targets for cancer therapy” (Eur J Med Chem, 2020).
In brackets after ≈: the same amount, converted by molar mass. Each block holds one compound with its values, some of them ahead of it.

Assays:
[1] = system: HepG2; assay: Anticancer activity against human HepG2 cells; type: functional, cell-based
[2] = system: Colon cell line; assay: Cytotoxicity against human Colon cell line; type: functional, cell-based
[3] = system: HepG2; assay: Cytotoxicity against human HepG2 cells; type: functional, cell-based
[4] = system: HeLa; assay: Cytotoxicity against human HeLa cells; type: functional, cell-based
[5] = system: MCF7; assay: Anticancer activity against human MCF7 cells; type: functional, cell-based
[6] = molecular target: Epidermal growth factor receptor (Homo sapiens, UniProt P00533); assay: Inhibition of EGFR (unknown origin)
Sequence of Epidermal growth factor receptor (P00533 whole entry): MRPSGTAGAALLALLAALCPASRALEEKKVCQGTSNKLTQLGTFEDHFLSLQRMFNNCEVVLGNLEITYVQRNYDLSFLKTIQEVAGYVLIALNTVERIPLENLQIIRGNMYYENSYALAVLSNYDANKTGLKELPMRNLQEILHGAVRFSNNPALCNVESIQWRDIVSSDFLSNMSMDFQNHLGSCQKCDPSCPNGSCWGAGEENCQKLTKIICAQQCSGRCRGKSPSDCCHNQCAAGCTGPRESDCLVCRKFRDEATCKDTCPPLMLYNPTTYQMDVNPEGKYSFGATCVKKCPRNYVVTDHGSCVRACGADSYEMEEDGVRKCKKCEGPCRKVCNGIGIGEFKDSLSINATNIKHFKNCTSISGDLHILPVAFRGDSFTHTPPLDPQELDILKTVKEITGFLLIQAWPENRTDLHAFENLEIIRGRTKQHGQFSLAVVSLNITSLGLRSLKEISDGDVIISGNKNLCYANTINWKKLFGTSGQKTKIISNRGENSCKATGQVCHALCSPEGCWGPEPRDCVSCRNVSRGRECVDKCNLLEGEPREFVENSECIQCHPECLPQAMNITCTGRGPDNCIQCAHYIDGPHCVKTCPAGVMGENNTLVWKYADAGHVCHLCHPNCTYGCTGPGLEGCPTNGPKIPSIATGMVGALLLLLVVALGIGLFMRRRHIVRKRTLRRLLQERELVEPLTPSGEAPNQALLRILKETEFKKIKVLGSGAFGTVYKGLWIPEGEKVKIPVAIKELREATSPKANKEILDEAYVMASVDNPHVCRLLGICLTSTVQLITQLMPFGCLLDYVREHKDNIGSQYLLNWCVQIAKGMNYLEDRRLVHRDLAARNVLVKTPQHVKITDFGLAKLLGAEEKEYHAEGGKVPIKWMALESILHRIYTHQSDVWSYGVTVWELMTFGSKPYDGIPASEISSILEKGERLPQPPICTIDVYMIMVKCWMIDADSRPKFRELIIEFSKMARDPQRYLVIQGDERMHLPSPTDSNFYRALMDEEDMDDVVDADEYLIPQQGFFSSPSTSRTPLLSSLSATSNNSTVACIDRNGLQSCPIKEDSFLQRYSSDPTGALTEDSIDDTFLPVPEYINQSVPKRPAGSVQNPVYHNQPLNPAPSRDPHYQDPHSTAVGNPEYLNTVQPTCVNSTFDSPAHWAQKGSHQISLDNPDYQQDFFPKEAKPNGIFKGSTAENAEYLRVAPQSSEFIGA

[7] = system: MKN-74; assay: Cytotoxicity against human MKN-74 cells; type: functional, cell-based
[8] = Cytotoxicity against human SNU-216 cells; type: functional, cell-based
[9] = system: SNU-638; assay: Cytotoxicity against human SNU-638 cells; type: functional, cell-based
[10] = system: SK-HEP1; assay: Cytotoxicity against human SK-HEP1 cells; type: functional, cell-based
[11] = system: Hep 3B2; assay: Cytotoxicity against human Hep3B cells; type: functional, cell-based
[12] = system: AGS; assay: Cytotoxicity against human AGS cells; type: functional, cell-based
[13] = system: A549; assay: Antiproliferative activity against human A549 cells; type: functional, cell-based
[14] = system: HCT-116; assay: Antiproliferative activity against human HCT-116 cells assessed as reduction in cell viability; type: functional, cell-based
[15] = system: HEK293; assay: Antiproliferative activity against human HEK293 cells; type: functional
[16] = system: MDA-MB-435; assay: Cytotoxicity against human MDA-MB-435 cells; type: functional, cell-based
[17] = system: HepG2; assay: Cytotoxicity against human HepG2 cells assessed as reduction in cell viability measured after 48 hrs by MTS assay; type: functional, cell-based; settings: HepG2, 48 h
[18] = system: MV4-11; assay: Anticancer activity against human MV4-11 cells; type: functional, cell-based
[19] = system: HCT-116; assay: Anticancer activity against human HCT-116 cells; type: functional, cell-based
[20] = system: K562; assay: Anticancer activity against human K562 cells; type: functional, cell-based
[21] = system: MCF7; assay: Cytotoxicity against human MCF7 cells; type: functional, cell-based
[22] = system: SMMC-7721; assay: Cytotoxicity against human SMMC-7721 cells; type: functional, cell-based

IC50 [1]: 1.98 µg/mL
Compound: Cc1c(C(=O)Nc2ccccc2)s/c(=N\NC(=O)c2cnc(-c3ccccc3)s2)n1-c1ccccc1

IC50 [1]: 10.8 µM
Compound: Cc1ccc(-c2nc(C(=O)Nc3ccc([N+](=O)[O-])cc3)cs2)cc1
IC50 ([2]; Homo sapiens, Colon cell line): 10.8 µM

Compound: Cc1nc(C(Cl)(Cl)S(=O)(=O)c2ccccc2)c([N+](=O)[O-])s1
CC50 [3]: < 2500 nM

GI50 [5]: > 80 µg/mL
Compound: O=[N+]([O-])c1ccc(-c2nn(-c3nc(-c4ccc(Br)cc4)cs3)cc2/C=N/c2nc[nH]n2)cc1
GI50 [4]: 1.2 µg/mL (≈ 2.3 µM)

IC50 [6]: 2000 nM
Compound: CC(C)=NNc1nc(-c2ccc(Cl)cc2)cs1

Compound: C/C=C1\NC(=O)[C@H]([C@@H](C)O)NC(=O)c2csc(n2)-c2ccc(-c3nc(-c4nc(C(=O)N/C(=C/C)C(=O)NC[C@@H](C)O)cs4)cs3)nc2-c2csc(n2)[C@H]([C@@H](C)O)NC(=O)c2csc(n2)[C@H](C(C)(C)O)NC(=O)c2csc1n2
IC50 [7]: 11 µM | IC50 [8]: 7500 nM | IC50 [9]: 990 nM | IC50 [3]: 1340 nM | IC50 [10]: 2120 nM | IC50 [11]: 2340 nM | IC50 [12]: 1430 nM

Compound: COc1cccc2c1C(=O)c1c(O)c3c(c(O)c1C2=O)C[C@@](O)(C(=O)CO)C[C@@H]3O[C@H]1C[C@H](N)[C@H](O)[C@H](C)O1.Cl [DOXORUBICIN HYDROCHLORIDE]
GI50 [4]: < 80 µg/mL

GI50 [13]: 1460 nM | IC50 [14]: 390 nM
Compound: CCCCCCCC(=O)SCC/C=C/[C@@H]1CC(=O)NCc2nc(cs2)C2=N[C@@](C)(CS2)C(=O)N[C@@H](c2ccccc2)C(=O)O1
GI50 [15]: > 100 µM

Compound: COc1ccc(-c2csc(NC(=O)CN3CCc4ccccc4C3)n2)cc1
LC50 ([2]; Homo sapiens, Colon cell line): 28 µg/mL (≈ 73.8 µM)

Compound: Cc1nc(C(Cl)(Cl)S(=O)(=O)c2ccc(F)cc2)c([N+](=O)[O-])s1
CC50 [3]: < 2500 nM

IC50 [5]: 8.87 µM
Compound: C/C(=N/N=c1/[nH]c(C)c(/N=N/c2ccccc2)s1)[C@H]1CC[C@H]2[C@@H]3CCC4=CC(=O)CC[C@]4(C)[C@H]3CC[C@]12C

Compound: C=C(NC(=O)C(=C)NC(=O)c1csc(C2=N[C@@H]3c4csc(n4)[C@H]4NC(=O)c5csc(n5)[C@H]([C@](C)(O)[C@@H](C)O)NC(=O)[C@H]5CSC(=N5)/C(=C/C)NC(=O)[C@H]([C@@H](C)O)NC(=O)c5csc(n5)[C@]3(CC2)NC(=O)[C@H](C)NC(=O)C(=C)NC(=O)[C@H](C)NC(=O)[C@H]([C@@H](C)CC)N[C@@H]2C=Cc3c([C@H](C)O)cc(nc3[C@H]2O)C(=O)O[C@@H]4C)n1)C(N)=O [THIOSTREPTON]
IC50 [7]: 4.2 µM | IC50 [8]: 410 nM | IC50 [9]: 300 nM | IC50 [3]: 710 nM | IC50 [10]: 740 nM | IC50 [11]: 820 nM | IC50 [12]: 400 nM

Compound: Nc1nc(-c2ccc(Oc3ccc(Cl)c(Cl)c3)cc2)cs1
IC50 [16]: 759 nM

Compound: COc1ccc(/C=C(/C#N)c2nc(-c3cc4ccccc4oc3=O)cs2)cc1
IC50 [17]: 2330 nM

Compound: N#Cc1ccc(S(=O)(=O)Nc2ccc(-c3csc(N/N=C/c4ccc(N(CCCl)CCCl)cc4)n3)cc2)cc1
IC50 [18]: 2170 nM | IC50 [19]: 3.02 µg/mL

Compound: Cc1nc(C(Cl)(Cl)S(=O)(=O)c2ccc(Br)cc2)c([N+](=O)[O-])s1
CC50 [3]: < 2500 nM

Compound: Cc1nc(C(Cl)(Cl)S(=O)(=O)c2ccc(Cl)cc2)c([N+](=O)[O-])s1
CC50 [3]: < 2500 nM

IC50 [20]: 13.1 µM
Compound: O=S(=O)(O)c1ccc(/N=N/C(=N\c2nc(-c3ccccc3)cs2)c2cc3ccccc3nc2Cl)cc1
IC50 [21]: 16 µM

Compound: O=S(=O)(Nc1ccc(-c2csc(N/N=C/c3ccc(N(CCCl)CCCl)cc3)n2)cc1)c1ccc(F)cc1
IC50 [18]: 2170 nM | IC50 [19]: 3.02 µg/mL

IC50 [6]: 80 nM
Compound: O=C(NC1=NC2C(=O)NN=C(c3ccc(Br)cc3)C2S1)Nc1ccc(Cl)cc1 (stereo unspecified)

IC50 [6]: 5480 nM
Compound: FC(F)(F)c1ccc(/C=N/Nc2nc(-c3ccc(Cl)cc3Cl)cs2)cc1

Compound: CCCCCCCC(=O)SCC/C=C/[C@@H]1CC(=O)NCc2nc(cs2)C2=N[C@@](C)(CS2)C(=O)N[C@@H](C(C)C)C(=O)O1 [LARGAZOLE]
GI50 [13]: 1460 nM | IC50 [14]: 390 nM | GI50 [15]: > 100 µM

IC50 [6]: 10100 nM
Compound: CCOC(=O)c1csc(NC(=S)Nc2ccc(Cl)cc2)n1

Compound: C=C(NC(=O)C(=C)NC(=O)c1ccc2c(n1)-c1coc(n1)C(=O)NC(=O)CNC(=O)c1coc(n1)C(=C)NC(=O)[C@H](C(C)(C)O)NC(=O)C(=O)NC(=O)c1nc(oc1C)/C(=C\C)NC[C@H](C(C)C)NC(=O)c1csc-2n1)C(N)=O
IC50 [7]: 2.43 µM | IC50 [8]: 880 nM | IC50 [9]: 750 nM | IC50 [3]: 1300 nM | IC50 [10]: 990 nM | IC50 [11]: 1040 nM | IC50 [12]: 990 nM

Compound: CC(=O)Nc1ccc(NC(=O)/C(C#N)=C2\SC=C(c3ccccc3)N2c2ccccc2)cc1
IC50 [21]: 9.3 µg/mL

IC50 [1]: 1.61 µg/mL
Compound: C/C(=N\NC(=O)c1sc(-c2ccccc2)nc1C)C1=NN(C)C(/N=N/C(=O)c2sc(-c3ccccc3)nc2-c2ccc(C)cc2)C1 (stereo unspecified)

Compound: C/C=C1\NC(=O)[C@H]([C@@H](C)O)NC(=O)c2csc(n2)-c2ccc(-c3nc(-c4nc(C(=O)N/C(=C/C)C(=O)NC[C@H](C)O)cs4)cs3)nc2-c2csc(n2)[C@H]([C@@H](C)O)NC(=O)c2csc(n2)[C@H](C(C)C)NC(=O)c2csc1n2
IC50 [7]: 7.3 µM | IC50 [8]: 440 nM | IC50 [9]: 410 nM | IC50 [3]: 910 nM | IC50 [10]: 830 nM | IC50 [11]: 940 nM | IC50 [12]: 500 nM

Compound: O=C1NC(=O)/C(=C/c2ccccc2Cl)S1
IC [2]: 10 µg/mL

Compound: COc1ccc(/C=C(/C#N)c2nc(-c3cc4ccccc4oc3=O)cs2)cc1OC
IC50 [17]: 2890 nM

IC50 [6]: 20 nM
Compound: COc1cc(C(=NC#N)c2csc(-c3ccccc3)n2)cc(OC)c1OC

Compound: CC1=C(C(=O)Nc2nc(-c3ccccc3)cs2)C(c2ccc(Cl)cc2)C(C(=O)Nc2nc(-c3ccccc3)cs2)=C(C)N1
IC50 [4]: 2 nM

Compound: CC(=O)Nc1ccc(NC(=O)/C(C#N)=C2\SC=C(C)N2c2ccccc2)cc1
IC50 [21]: 6.9 µg/mL

Compound: CC1=C(C(=O)Nc2nc(-c3ccccc3)cs2)C(c2ccc([N+](=O)[O-])cc2)C(C(=O)Nc2nc(-c3ccccc3)cs2)=C(C)N1
IC50 [4]: 3 nM

IC50 [1]: 0.15 µM | IC50 [20]: 0.02 µM | IC50 [19]: 1370 nM
Compound: Cc1nc(N2N=C(c3cccs3)CC2c2ccc(C3CC(c4cccs4)=NN3c3nc(C)c(/N=N/c4ccc([N+](=O)[O-])cc4)s3)cc2)sc1/N=N/c1ccc([N+](=O)[O-])cc1 (stereo unspecified)
IC50 [22]: 3000 nM | IC50 [17]: 1370 nM

IC50 [1]: 11.6 µM
Compound: Cc1ccc(-c2nc(C(=O)Nc3cccc(Cl)c3)cs2)cc1

IC50 [5]: 3.53 µM
Compound: CC/C(=C(\c1ccccc1)c1ccc(OCCN(C)C)cc1)c1ccccc1 [TAMOXIFEN]

IC50 [6]: 8 nM
Compound: COc1cc(C(=O)c2csc(-c3ccc4[nH]ccc4c3)n2)cc(OC)c1OC

Compound: Cc1ccc(S(=O)(=O)C(Cl)(Cl)c2nc(C)sc2[N+](=O)[O-])cc1
CC50 ([2]; Homo sapiens, Colon cell line): 1000 nM | CC50 [3]: < 2500 nM

IC50 [5]: 5.28 µM
Compound: C/C(=N/N=c1/[nH]c(-c2ccccc2)c(/N=N/c2ccccc2)s1)[C@H]1CC[C@H]2[C@@H]3CCC4=CC(=O)CC[C@]4(C)[C@H]3CC[C@]12C

Compound: C=C(NC(=O)C(=C)NC(=O)c1csc(C2=N[C@@H]3c4csc(n4)[C@H]4NC(=O)c5csc(n5)C([C@](C)(O)[C@@H](C)O)NC(=O)[C@H]5CSC(=N5)/C(=C/C)NC(=O)C([C@@H](C)O)NC(=O)c5csc(n5)[C@]3(CC2)NC(=O)[C@H](C)NC(=O)C(=C)NC(=O)C(=C)NC(=O)[C@H](C(C)C)N[C@H]2C=Cc3c([C@H](C)O)cc(nc3[C@H]2O)C(=O)O[C@@H]4C)n1)C(N)=O (stereo partly specified)
IC50 [7]: 6.21 µM | IC50 [8]: 750 nM | IC50 [9]: 910 nM | IC50 [3]: 1300 nM | IC50 [10]: 1600 nM | IC50 [11]: 1900 nM | IC50 [12]: 710 nM

Compound: COc1ccc(S(=O)(=O)Nc2ccc(-c3csc(N/N=C/c4ccc(N(CCCl)CCCl)cc4)n3)cc2)cc1
IC50 [18]: 2170 nM | IC50 [19]: 3.02 µg/mL
